From patent publication EP0812190B1 (priority 1993, dated 1995)
Counter-ions that a name gives are not always drawn. Like-named read-outs stand apart in the source and are kept apart here.

How the values were obtained:
[1] = tested on: maximal electroshock seizures; details: rats, p.o., 50 mg/kg
Text: (§1) The MES test is a classical model to indicate efficacy for partial and generalized seizures in humans. […] Some agents, however, that prevent seizure spread have the side effect of lowering seizure threshold. These agents therefore have both proconvulsive and anticonvulsive side effects.

[2] = tested on: maximal electroshock seizures; assay: animal or person; details: for ED50: Mus musculus, ip
Text: as §1

[3] = Comparative stability: visual inspection of color and form; type: physicochemical
Procedure: Comparative stability studies were carried out under sets of several accelerating conditions: I) heating at 80°C for 72, 96 or 144 hours; and II) reflux in isopropanol for 30 hours. The degradation products developed were measured by HPLC and confirmed by TLC. The results are presented in Table 9 with the relative retention time (relative to the PAI peak; RRT) as an area percentage relative to total integrated peak area.
The salts were submitted to visual inspection of color and form.

[4] = Thermo-gravimetric analysis of PAI salts; type: physicochemical; details: 10°C/min
Procedure: (§2) The melting range was measured with an automatic apparatus (Mettler FP 80) and thermo-gravimetric analysis was performed on a Mettler TA 3000 system at a rate of 10°C/min in the applicable range. […] The pH was measured in a 1% aqueous solution of the PAI salts.

[5] = tested on: minimal seizure threshold; details: literature (Kupferberg); cited from earlier work
[6] = pH of 1% aqueous solution of PAI salts; type: physicochemical
Procedure: as §2

MAO-B [7] = molecular target: T1, MAO-B (Rattus norvegicus, UniProt P19643); assay: Rat brain MAO inhibition by propargylamines (Table IA), MAO-B; type: biochemical; design: in a rat brain preparation of MAO; from tissue; host or cells: rat brain preparation; details: ratio between epimers, MAO-B
T1 sequence (P19643 1-520): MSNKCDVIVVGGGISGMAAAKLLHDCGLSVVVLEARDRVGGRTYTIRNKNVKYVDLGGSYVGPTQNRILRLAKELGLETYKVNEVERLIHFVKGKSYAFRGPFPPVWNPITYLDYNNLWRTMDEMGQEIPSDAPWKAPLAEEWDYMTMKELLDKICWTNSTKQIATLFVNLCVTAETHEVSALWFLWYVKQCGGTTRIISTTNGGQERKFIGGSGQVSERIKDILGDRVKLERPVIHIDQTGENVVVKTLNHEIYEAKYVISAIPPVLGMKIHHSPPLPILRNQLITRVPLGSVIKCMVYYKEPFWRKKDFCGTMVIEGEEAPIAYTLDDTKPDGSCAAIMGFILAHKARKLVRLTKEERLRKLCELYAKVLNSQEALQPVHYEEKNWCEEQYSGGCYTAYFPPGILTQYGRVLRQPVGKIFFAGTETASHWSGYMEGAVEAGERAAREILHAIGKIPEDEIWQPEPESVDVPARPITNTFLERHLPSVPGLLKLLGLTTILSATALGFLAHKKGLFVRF

MAO-A [8] = molecular target: T2, MAO-A (Rattus norvegicus, UniProt P21396); assay: Rat brain MAO inhibition by propargylamines (Table IA), MAO-A; type: biochemical; design: MAO activity determined in brain and liver using the general technique described above; from tissue; host or cells: brain and liver of treated rats; details: ratio between epimers
T2 sequence (P21396 1-526): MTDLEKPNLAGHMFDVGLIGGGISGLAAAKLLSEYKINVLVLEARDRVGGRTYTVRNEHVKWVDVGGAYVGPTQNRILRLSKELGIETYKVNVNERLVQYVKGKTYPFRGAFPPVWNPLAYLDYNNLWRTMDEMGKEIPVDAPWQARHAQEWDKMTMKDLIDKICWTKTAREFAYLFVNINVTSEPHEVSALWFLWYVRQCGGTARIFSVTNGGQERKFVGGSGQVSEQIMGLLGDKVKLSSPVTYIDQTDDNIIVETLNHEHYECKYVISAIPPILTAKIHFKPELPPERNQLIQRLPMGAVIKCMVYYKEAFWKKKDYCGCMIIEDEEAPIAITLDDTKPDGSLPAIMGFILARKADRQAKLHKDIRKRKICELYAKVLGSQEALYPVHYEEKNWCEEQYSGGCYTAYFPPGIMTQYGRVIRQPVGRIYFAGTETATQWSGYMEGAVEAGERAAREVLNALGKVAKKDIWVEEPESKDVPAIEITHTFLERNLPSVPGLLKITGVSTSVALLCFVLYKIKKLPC

MAO-A [9] = molecular target: T2, MAO-A; assay: Inhibition of MAO activity in vivo, acute treatment, MAO-A; design: MAO activity determined in brain and liver using the general technique described above; from tissue; host or cells: brain and liver of treated rats; details: dose producing 50% inhibition, rat
MAO-B [10] = molecular target: T1, MAO-B; assay: in vivo; details: rat
Procedure: Groups of three rats were used for each dose level of inhibitor, and MAO activity determined in brain and liver using the general technique described above. The amount of protein in each incubation was determined using the Folin-Lowry method, and enzyme activity calculated as nmol of substrate metabolized per hour of incubation for each mg of protein. Activity of MAO in tissues from animals treated with inhibitors was expressed as a percentage of the enzyme activity in a group of control animals administered vehicle (water for oral administration, 0.9% saline for ip injection) and killed as above.

[11] = tested on: heart rate, blood pressure, cardiovascular effects of tyramine; details: comparative animal tests versus (-)-deprenyl; cited from earlier work
guinea-pig ileum [12] = assay: tissue or blood; details: Cavia porcellus, read-out: Percent relaxation
guinea-pig ileum [13] = assay: tissue or blood; details: Cavia porcellus, read-out: Percent relaxation; remark: listed apart in the source
rabbit jejunum = assay: Tyramine potentiation in rabbit jejunum preparation
guinea-pig ileum [14] = tested on: guinea-pig ileum
[15] = tested on: MPTP-induced striatal dopamine depletions; assay: Suppression of MPTP-induced dopaminergic toxicity (striatal DA and DOPAC); type: in vivo, mice; details: striatum
Procedure: Brains were removed and corpora striata dissected on an ice-cold glass plate and frozen on dry ice. Striatal tissues were homogenized in 0.1 M perchloric acid, and deproteinized aliquots containing dihydroxybenzylamine as an internal standard were assayed for dopamine and its major metabolite 3,4-dihydroxy-phenylacetic acid (DOPAC) using HPLC with electrochemical detection.

[16] = tested on: amphetamine-induced stereotype behavior; details: control senescent rats; 0.5 mg/kg/day in drinking water; lateral head movements over 1 minute, 45 min after amphetamine 0.5 mg/kg s.c.
Procedure: The extent of this behavior is rated in accordance with the number of lateral head movements over a period of 1 minute.
Following that, amphetamine was injected s.c. at a dose of 0.5 mg/kg. 45 minutes later, lateral head movements were counted.

neurological deficits = details: mice, 300 mg/kg
Procedure: TD50 (median toxic dose). This test measures neurological deficits by the rotorod ataxia test. A mouse is placed on a knurled rod rotating at 6 rpm. It is then determined whether a mouse has the ability to maintain its equilibrium and stay on the rod for one minute in each of three trials.

[17] = tested on: minimal seizure threshold; details: 141 mg/kg
Procedure: Timed Intravenous Infusion of Metrazol Test. This test measures the minimal seizure threshold of each animal. […] The time is then recorded (sec) from the start of infusion until the appearance of the first twitch (first focal seizure) and onset of clonus (clonic seizure).

## C#CCN[C@@H]1CCc2ccccc21.Cl [[R](+)PAI HCl, R-(+)-N-Propargyl-1-aminoindan hydrochloride]
[1]
  animals protected from seizures: three out of four
[2]
  ED50: 79 mg/kg

## C#CCN[C@H]1CCc2ccccc21 [[S](-)PAI HCl, S-(-)-N-Propargyl-1-aminoindan hydrochloride, reference compound]
[1]
  animals protected from seizures: Four out of four
[2]
  ED50: 57 mg/kg

## maleate
[3]; 80°C/72h
  appearance: brown melted
[3]; 80°C/96h
  appearance: brown
[3]; reflux in iPrOH/30h
  appearance: brown melted
[4]
  %Wt. loss: 0.1%
water
  Solubility: NLT 1000 mg/ml

## NC(=O)N1c2ccccc2C=Cc2ccccc21 [carbamazepine]
[5]
  time to first focal seizure and onset of clonus: do not show this effect

## tosylate
[4]
  %Wt. loss: LT 0.1%
Saturated salt water solution
  Solubility: 60 to 70 mg/mL
[6]
  pH: 4.4

## fumarate
[4]
  %Wt. loss: 0.2%
water
  Solubility: 95 mg/mL
[6]
  pH: 3.5

## C#CCNC1CCCc2ccccc21 (racemic) [Example 1-PAT, N-propargyl-1-aminotetralin]
MAO-B [7]
  RELATIVE POTENCY R/S B: 0.5
MAO-A [8]
  RELATIVE POTENCY R/S A: 4

## tartarate
[4]
  %Wt. loss: LT 0.1%
[6]
  pH: 5.5

## N-Methyl-N-propargyl-1-aminotetralin [Example 2-MPAI]
MAO-B [7]
  RELATIVE POTENCY +/- B: 0.2
MAO-A [8]
  RELATIVE POTENCY +/- A: 3

## C#CCNC1CCc2ccccc21 (racemic) [Rac, N-propargyl-1-aminoindan, reference compound]
MAO-A [9]; i.p., 1h
  IC-50 MAO-A I.P. BRAIN: 2.5 mg/kg
  IC-50 MAO-A I.P. LIVER: 5 mg/kg
MAO-A [9]; p.o., 2h
  IC-50 MAO-A P.O. BRAIN: >5 mg/kg
  IC-50 MAO-A P.O. LIVER: >5 mg/kg
MAO-B [10]; dose producing 50% inhibition, p.o., 2h
  IC-50 MAO-B P.O. BRAIN: 0.29 mg/kg
MAO-B [10]; ip, 1 h, read-out: IC-50 MAO-B I.P. BRAIN
  ED50: 0.22 mg/kg
MAO-B [10]; ip, 1 h, read-out: IC-50 MAO-B I.P. LIVER
  ED50: 0.11 mg/kg
MAO-B [10]; po, 2 h, read-out: IC-50 MAO-B P.O. LIVER
  ED50: 0.09 mg/kg
[11]
  blood pressure: does not increase blood pressure
  tachycardia: no significant tachycardia

## C#CCN[C@H]1CCc2ccccc21 [[S](-)PAI, S-(-)-N-propargyl-1-aminoindan, reference compound]
guinea-pig ileum [12]
  inhibition at 60 µM: 60 to 70%
  inhibition at 300 µM: 100%
guinea-pig ileum [13]
  inhibition at 2 µM: 11%
  inhibition at 30 µM: 33%
  inhibition at 40 µM: 36%
  inhibition at 200 µM: 90%
  inhibition at 400 µM: 98%
  inhibition at 1000 µM: 100%
Rabbit jejunum; PAI HCl enantiomer alone 0.2-4.0 µM
  Percent relaxation: 0%
Rabbit jejunum; tyramine 40 µM after 0.2 µM PAI HCl enantiomer
  Percent relaxation: 0%
Rabbit jejunum; tyramine 40 µM after 2 µM PAI HCl enantiomer
  Percent relaxation: 35%
Rabbit jejunum; tyramine 40 µM after 40 µM PAI HCl enantiomer
  Percent relaxation: 33-50%
guinea-pig ileum [14]; bethanechol 0.8 µM, 400 µM PAI HCl enantiomer
  gram-tension: 0 gram-tension
guinea-pig ileum [14]; bethanechol 2 µM, 400 µM enantiomer
  gram-tension: 0 gram-tension
guinea-pig ileum [14]; bethanechol 4 µM, 400 µM enantiomer
  gram-tension: 0 gram-tension
guinea-pig ileum [14]; bethanechol 20 µM, 400 µM enantiomer
  gram-tension: 1.2 gram-tension
guinea-pig ileum [14]; bethanechol 80 µM, 400 µM enantiomer
  gram-tension: 2.6 gram-tension
guinea-pig ileum [14]; bethanechol 200 µM, 400 µM enantiomer
  gram-tension: 2.6 gram-tension
[15]; drug alone (PAI isomers […] i.p., deprenyl 5 mg/kg i.p.)
  DOPAC: 7.5±0.2 ng/mg protein
[15]; drug alone (PAI isomers […] i.p., deprenyl 5 mg/kg i.p.), Mean±S.E.M.
  DA: 174.0±4.8 ng/mg protein
[15]; pretreatment one hour before MPTP-HCl 30 mg/kg s.c. (PAI isomers […] i.p., deprenyl 5 mg/kg i.p.), 5 days later
  DA: 53.4±6.9 ng/mg protein
[15]; pretreatment one hour before MPTP-HCl 30 mg/kg s.c., 5 days later
  DOPAC: 7.0±0.6 ng/mg protein
[16]
  Stereotype Behavior Rating: totally inactive

## C#CCN[C@H]1CCc2ccccc21 [[S](-)PAI Mesylate, reference compound]
[2]; mice, 100 mg/kg
  mice protected: three out of three
Neurological deficits
  acute neurotoxicity: four out of four mice showed neurotoxicity and spasticity
[17]
  time to first focal seizure and onset of clonus: reduces the time

## O=C1NC(=O)C(c2ccccc2)(c2ccccc2)N1 [phenytoin]
[5]
  time to first focal seizure and onset of clonus: do not show this effect
